Data as given in patent US11111219B2, “Polysubstituted pyrimidines inhibiting the formation of prostaglandin E2, a method of production thereof and use thereof” (USTAV ORGANICKE CHEMIE A BIOCHEMIE AV CR, V.V.I., priority 2017, dated 2021).
Several values for one entry are separate records, joined by “and”; a condition that tells them apart may be missing. Equal entries are not always repeated.

Assays:
Type in all cases: cell-based
[1] = tested on: biosynthesis of PGE2; assay: Production of PGE2 in LPS-stimulated mouse peritoneal cells; conditions: for activity at 50 µM: Mus musculus, 5 h, compound 50 μmol·l^−1, with LPS 10 ng/ml, 5 hours, LPS alone = 100%, low values = strong inhibition, read-out: PGE2 remaining activity in % of LPS response (mean ± SEM); for IC50: concentration-effect experiments, 0.0004 to 25 μmol·l^−1, mouse peritoneal cells, LPS, read-out: PGE2 IC50, and 95% limits of confidence (in parentheses)
Description: Production of PGE2 was assayed in vitro in cultures of mouse peritoneal cells. The cells (2×10^6/mL) were stimulated with bacterial lipopolysaccharide (LPS, 10 ng/ml). Tested pyrimidine derivatives were applied at the concentration of 50 μmol.l^−1, concomitantly with LPS. Amount of PGE2 in cell supernatants was determined 5 hours after stimulation using the commercially available kit (R&D Systems). The effects of pyrimidines on PGE2 production were evaluated in percent of control values, i.e. those found after the action of LPS alone (100%). The data in Table 2 show the remaining activity; the low values thus indicate strong inhibition of PGE2 formation.
The concentrations required to inhibit PGE2 biosynthesis by 50% (so-called IC50) were determined by the analysis of concentration-effect experiments. For this purpose, the compounds were applied within the range of 0.0004 μmol.l^−1 až 25 μmol.l^−1.

[2] = tested on: mouse peritoneal cells; assay: Cell viability, lactate dehydrogenase (LDH) assay; conditions: compound 50 μmol·l^−1, 5 hours
Description: Cell viability was determined using the lactate dehydrogenase assay (LDH kit, Sigma-Aldrich). The mouse peritoneal cells were cultured for 5 hours in the presence of tested compounds applied at the concentration of 50 μmol.l^−1. The effects of pyrimidines were compared with the viability of cells cultured in the absence of the compounds. The later was taken as a control 100% viability.

[3] = tested on: production of nitric oxide (NO); assay: Production of nitric oxide (NO) in LPS/IFN-γ-stimulated murine peritoneal cells (Griess reagent); conditions: Mus musculus; compound 50 μmol·l^−1, LPS 0.1 ng/ml + IFN-γ 5 ng/ml, nitrites at 24 h; LPS/IFN-γ alone = 100%; read-out: Production of NO in % of controls
Description: Similar to the PGE2 assay, the production of nitric oxide (NO) was followed under conditions in vitro using murine peritoneal cells (FIG. 1). The cells (2×10^6/ml) were cultured in presence of lipopolysaccharide (LPS, 0.1 ng/ml) and recombinant mouse interferon-γ (IFN-γ, 5 ng/ml). Effects of tested pyrimidine derivatives were screened at the concentration of 50 μmol.l^−1. The compounds were added concomitantly with LPS/IFN-γ. The concentration of nitrites in cell supernatants (a measure of NO production) was evaluated spectrophotometrically, 24 h after the priming stimuli. Griess reagent was used for this purpose. The effects of pyrimidines on NO production were evaluated in percent of control values, i.e those found after the action of LPS/IFN-γ alone (100%).

IC50 [1] [nM] | SMILES | activity at 50 µM [1] [%] | Cell viability in % of untreated controls (LDH assay) [2] | Inhibition of PGE2 production (in words) ([1]; compound 50 μmol·l^−1) | activity at 50 µM [3] [%]
– | CCCCc1c(-c2ccccc2)nc(N)nc1-c1ccc(OC(C)C)cc1 [Compound 1b, 5-butyl-4-(4-isopropoxyphenyl)-6-phenylpyrimidin-2-amine] | 12.3 ± 0.5 | 71.2 ± 1.9 (n = 8) % | – | –
– | CCCCc1c(-c2ccccc2)nc(N)nc1-c1cc(C)c(OCc2ccccc2Cl)c(C)c1 [Compound 1n, 5-butyl-4-(4-((2-chlorobenzyl)oxy)-3,5-dimethylphenyl)-6-phenylpyrimidin-2-amine] | 7.1 ± 1.9 | 103.6 ± 0.3 (n = 8) % | – | –
– | Nc1nc(-c2ccccc2)cc(-c2ccc(OCc3ccccc3)c(F)c2F)n1 [Compound 1l, 4-(4-(benzyloxy)-2,3-difluorophenyl)-6-phenylpyrimidin-2-amine] | 5.5 ± 0.3 | 102.6 ± 3.7 (n = 4) % | – | –
77 | CCCCc1c(-c2ccccc2)nc(N)nc1-c1ccc(OCc2ccc(Cl)cc2)cc1 [Compound 1j, 5-butyl-4-(4-((4-chlorobenzyl)oxy)phenyl)-6-phenylpyrimidin-2-amine] | 0.7 ± 0.5 | 101.2 ± 0.8 (n = 8) % | – | –
5400 | CCCCc1c(-c2ccccc2)nc(N)nc1-c1ccc(OCc2ccc(OC)cc2)cc1 [Compound 1h, 5-butyl-4-(4-((4-methoxybenzyl)oxy)phenyl)-6-phenylpyrimidin-2-amine] | 2 ± 1.5 | 104.2 ± 0.3 (n = 8) % | – | –
– | CCCCc1c(-c2ccccc2)nc(N)nc1-c1ccc(OCc2ccccc2)cc1C [Compound 1k, 4-(4-(benzyloxy)-2-methylphenyl)-5-butyl-6-phenylpyrimidin-2-amine] | 51.1 ± 0.8 | 103.2 ± 0.5 (n = 8) % | – | –
– | CCCCc1c(-c2ccccc2)nc(N)nc1-c1cc(C)c(OCc2cccc(Cl)c2)c(C)c1 [Compound 1o, 5-butyl-4-(4-((3-chlorobenzyl)oxy)-3,5-dimethylphenyl)-6-phenylpyrimidin-2-amine] | 6.5 ± 0.4 | 102.8 ± 0.4 (n = 8) % | – | –
94 | CCCCc1c(-c2ccccc2)nc(N)nc1-c1ccc(OCc2ccccc2)cc1 [Compound 1e, 4-(4-(benzyloxy)phenyl)-5-butyl-6-phenylpyrimidin-2-amine] | – | – | – | –
– | Nc1nc(-c2ccccc2)cc(-c2ccc(OCc3ccccc3)cc2)n1 [Compound 1d, 4-(4-(benzyloxy)phenyl)-6-phenylpyrimidin-2-amine] | 0.7 ± 0.8 | 101.2 ± 0.7 (n = 4) % | – | –
– | CCCCc1c(-c2ccc(Cl)cc2)nc(N)nc1-c1ccc(OCc2ccccc2)cc1 [Compound 2d, 4-(4-(benzyloxy)phenyl)-5-butyl-6-(4-chlorophenyl)pyrimidin-2-amine] | 4.1 ± 0.7 | 96.7 ± 2.2 (n = 4) % | – | –
– | CCCCc1c(-c2ccc(OCc3ccccc3)cc2)nc(N)nc1-c1cccc(OC)c1 [Compound 2a, 4-(4-(benzyloxy)phenyl)-5-butyl-6-(3-methoxyphenyl)pyrimidin-2-amine] | 10 ± 2 | 43.1% and 43.1 ± 8.4 (n = 4) % | – | –
– | COc1ccc(COc2ccc(-c3cc(-c4ccccc4)nc(N)n3)cc2)cc1 [Compound 1g] | 8.4 ± 3 | 99.6 ± 3.0 (n = 4) % | – | –
– | CCCCc1c(-c2ccccc2)nc(N)nc1-c1ccc(OCc2cccc3ccccc23)cc1 [Compound 1f, 5-butyl-4-(4-(naphthalen-1-ylmethoxy)phenyl)-6-phenylpyrimidin-2-amine] | 26.3 ± 5.3 | 104.8 ± 0.4 (n = 8) % | – | –
– | CCCCc1c(-c2ccc(OCc3ccccc3)cc2)nc(N)nc1-c1cccc(Cl)c1 [Compound 2c, 4-(4-(benzyloxy)phenyl)-5-butyl-6-(3-chlorophenyl)pyrimidin-2-amine] | 12.6 ± 1.7 | 101.3 ± 2.0 (n = 4) % | – | –
– | CCCCc1c(-c2ccc(OC)cc2)nc(N)nc1-c1ccc(OCc2ccccc2)cc1 [Compound 2b, 4-(4-(benzyloxy)phenyl)-5-butyl-6-(4-methoxyphenyl)pyrimidin-2-amin] | 10.5 ± 0.1 | 100.3 ± 1.2 (n = 4) % | – | –
– | Nc1nc(-c2ccccc2)cc(-c2ccc(OCc3ccc(Cl)cc3)cc2)n1 [Compound 1i, 4-(4-((4-chlorobenzyl)oxy)phenyl)-6-phenylpyrimidin-2-amine] | – | 102.2 ± 4.1 (n = 4) % | – | –
– | CCCCc1c(-c2ccccc2)nc(N)nc1-c1ccc(OCC)cc1 [Compound 1a, 5-butyl-4-(4-ethoxyphenyl)-6-phenylpyrimidin-2-amine] | 26.3 ± 0.1 | 104.6 ± 1.3 (n = 8) % | – | –
6 | CCCCc1c(-c2ccccc2)nc(N)nc1-c1ccc(OCc2ccccc2)c(F)c1F [Compound 1m, 4-(4-(benzyloxy)-2,3-difluorophenyl)-5-butyl-6-phenylpyrimidin-2-amine] | 0.03 ± 0.2 | 103.7 ± 0.4 (n = 8) % | completely inhibits | 84
